Measurements: article PMC5218480 (PLoS ONE, 2017)

Test system: MV-4-11 cells
Experiment: Gene expression microarray analysis (Affymetrix PrimeView) and GSEA
Format: cell-based, human
Design: RFU PODN (11730768_x_at) / Fold change /veh PODN (11730768_x_at) / RFU LINC00158 (11744669_a_at) / Fold change /veh LINC00158 (11744669_a_at) / RFU DUSP10 (11751237_a_at) / Fold change /veh DUSP10 (11751237_a_at) / RFU ID3 (11757404_x_at) / Fold change /veh ID3 (11757404_x_at) / RFU PLEKHG5 (11737974_s_at) / Fold change /veh PLEKHG5 (11737974_s_at) / RFU LRRC4B (11730491_at) / Fold change /veh LRRC4B (11730491_at) / RFU GIMAP4 (11747438_a_at) / Fold change /veh GIMAP4 (11747438_a_at) / RFU KRT8 (11758183_x_at) / Fold change /veh KRT8 (11758183_x_at) / RFU CNN1 (11734310_a_at) / Fold change /veh CNN1 (11734310_a_at) / RFU VPS37D (11726825_at) / Fold change /veh VPS37D (11726825_at) / RFU C10orf10 (11716522_x_at) / Fold change /veh C10orf10 (11716522_x_at) / RFU KIR2DL2 /// KIR2DL4 /// KIR2DL5A /// KIR2DL5B /// KIR2DS1 /// KIR2DS2 /// KIR2DS3 /// KIR2DS4 /// KIR3DL3 /// KIR3DL3 /// KIR3DS1 (11738374_at) / Fold change /veh KIR2DL2 /// KIR2DL4 /// KIR2DL5A /// KIR2DL5B /// KIR2DS1 /// KIR2DS2 /// KIR2DS3 /// KIR2DS4 /// KIR3DL3 /// KIR3DL3 /// KIR3DS1 (11738374_at) / RFU C1QL1 (11718748_at) / Fold change /veh C1QL1 (11718748_at) / RFU TMPRSS4 (11747572_a_at) / Fold change /veh TMPRSS4 (11747572_a_at) / RFU HAMP (11756126_x_at) / Fold change /veh HAMP (11756126_x_at) / RFU RNFT2 (11725882_a_at) / Fold change /veh RNFT2 (11725882_a_at) / RFU NR4A2 (11747474_a_at) / Fold change /veh NR4A2 (11747474_a_at) / RFU ABCC12 (11746883_a_at) / Fold change /veh ABCC12 (11746883_a_at) / RFU TMEM136 (11760407_x_at) / Fold change /veh TMEM136 (11760407_x_at) / RFU CLDN22 /// WWC2 (11732394_at) / Fold change /veh CLDN22 /// WWC2 (11732394_at) / RFU HLA-DPB1 (11760878_x_at) / Fold change /veh HLA-DPB1 (11760878_x_at) / RFU SPINT1 (11716480_a_at) / Fold change /veh SPINT1 (11716480_a_at) / RFU GAP43 (11754022_s_at) / Fold change /veh GAP43 (11754022_s_at) / RFU A4GNT (11735810_at) / Fold change /veh A4GNT (11735810_at) / RFU PRB3 (11715151_x_at) / Fold change /veh PRB3 (11715151_x_at) / RFU TUBB4B (11761932_at) / Fold change /veh TUBB4B (11761932_at) / RFU CAPN14 (11732068_a_at) / Fold change /veh CAPN14 (11732068_a_at) / RFU TMCC2 (11721928_a_at) / Fold change /veh TMCC2 (11721928_a_at) / RFU IRGQ (11745062_a_at) / Fold change /veh IRGQ (11745062_a_at) / RFU FAM174B (11720279_a_at) / Fold change /veh FAM174B (11720279_a_at) / RFU TMPRSS4 (11748680_a_at) / Fold change /veh TMPRSS4 (11748680_a_at) / RFU FAM212B (11763350_a_at) / Fold change /veh FAM212B (11763350_a_at) / RFU PLEKHG5 (11743358_a_at) / Fold change /veh PLEKHG5 (11743358_a_at) / RFU ZSCAN30 (11745921_a_at) / Fold change /veh ZSCAN30 (11745921_a_at) / RFU CMKLR1 (11741424_a_at) / Fold change /veh CMKLR1 (11741424_a_at) / RFU LOC101060620 /// MAPK8IP1 (11723275_at) / Fold change /veh LOC101060620 /// MAPK8IP1 (11723275_at) / RFU SPTSSB (11747773_x_at) / Fold change /veh SPTSSB (11747773_x_at) / RFU PRSS12 (11739890_at) / Fold change /veh PRSS12 (11739890_at) / RFU BIN1 (11741810_x_at) / Fold change /veh BIN1 (11741810_x_at) / RFU WNT11 (11732464_a_at) / Fold change /veh WNT11 (11732464_a_at) / RFU C10orf10 (11716521_a_at) / Fold change /veh C10orf10 (11716521_a_at) / RFU C5orf56 (11738089_at) / Fold change /veh C5orf56 (11738089_at) / RFU CYB561 (11721691_x_at) / Fold change /veh CYB561 (11721691_x_at) / RFU ANKRD19P (11752326_a_at) / Fold change /veh ANKRD19P (11752326_a_at) / RFU OR2T12 /// OR2T33 /// OR2T8 (11738714_s_at) / Fold change /veh OR2T12 /// OR2T33 /// OR2T8 (11738714_s_at) / RFU VCAN (11748164_a_at) / Fold change /veh VCAN (11748164_a_at) / RFU JSRP1 (11732532_at) / Fold change /veh JSRP1 (11732532_at) / RFU KRTAP10-11 (11738290_x_at) / Fold change /veh KRTAP10-11 (11738290_x_at) / RFU MYO3A (11730013_a_at) / Fold change /veh MYO3A (11730013_a_at) / RFU EBF3 (11725865_a_at) / Fold change /veh EBF3 (11725865_a_at) / RFU CAMK2N1 (11719241_x_at) / Fold change /veh CAMK2N1 (11719241_x_at) / RFU C5orf56 (11738088_a_at) / Fold change /veh C5orf56 (11738088_a_at) / RFU OLFML3 (11715873_a_at) / Fold change /veh OLFML3 (11715873_a_at) / RFU LOC100653217 /// NTM (11731650_a_at) / Fold change /veh LOC100653217 /// NTM (11731650_a_at) / RFU MAPK11 (11762145_a_at) / Fold change /veh MAPK11 (11762145_a_at) / RFU FIZ1 (11724087_x_at) / Fold change /veh FIZ1 (11724087_x_at) / RFU OASL (11726364_x_at) / Fold change /veh OASL (11726364_x_at) / RFU SOX15 (11748057_x_at) / Fold change /veh SOX15 (11748057_x_at) / RFU CD79A (11719716_a_at) / Fold change /veh CD79A (11719716_a_at) / RFU HIST1H1D (11736915_at) / Fold change /veh HIST1H1D (11736915_at) / RFU CASKIN2 (11723855_a_at) / Fold change /veh CASKIN2 (11723855_a_at) / RFU LOC730098 (11760151_x_at) / Fold change /veh LOC730098 (11760151_x_at) / RFU OR4N2 (11742367_at) / Fold change /veh OR4N2 (11742367_at) / RFU PRRT2 (11749266_a_at) / Fold change /veh PRRT2 (11749266_a_at) / RFU SNX32 (11753110_a_at) / Fold change /veh SNX32 (11753110_a_at) / RFU CDHR5 (11726645_a_at) / Fold change /veh CDHR5 (11726645_a_at) / RFU RCAN1 (11760418_a_at) / Fold change /veh RCAN1 (11760418_a_at) / RFU FAM167A (11723789_a_at) / Fold change /veh FAM167A (11723789_a_at) / RFU FAM26E (11764081_at) / Fold change /veh FAM26E (11764081_at) / RFU ISYNA1 (11749810_s_at) / Fold change /veh ISYNA1 (11749810_s_at) / RFU ACY1 (11761880_at) / Fold change /veh ACY1 (11761880_at) / RFU 11764098_at / Fold change /veh 11764098_at / RFU SAMD14 (11745864_x_at) / Fold change /veh SAMD14 (11745864_x_at) / RFU NPB (11741838_a_at) / Fold change /veh NPB (11741838_a_at) / RFU TMPRSS6 (11731388_a_at) / Fold change /veh TMPRSS6 (11731388_a_at) / RFU KRTAP10-2 (11738614_at) / Fold change /veh KRTAP10-2 (11738614_at) / RFU ARHGAP8 /// PRR5-ARHGAP8 (11727945_x_at) / Fold change /veh ARHGAP8 /// PRR5-ARHGAP8 (11727945_x_at) / RFU KRTAP5-7 /// NADSYN1 (11734609_at) / Fold change /veh KRTAP5-7 /// NADSYN1 (11734609_at) / RFU RASL12 (11751679_a_at) / Fold change /veh RASL12 (11751679_a_at) / RFU CDKN2B (11736163_a_at) / Fold change /veh CDKN2B (11736163_a_at) / RFU PRF1 (11729649_at) / Fold change /veh PRF1 (11729649_at) / RFU, ZNF638 /// ZNF638-IT1 / Fold change vs veh, ZNF638 /// ZNF638-IT1 / RFU, PANK3 / Fold change vs veh, PANK3 / RFU, SH3YL1 / Fold change vs veh, SH3YL1 / RFU, ZEB2 / Fold change vs veh, ZEB2 / RFU, NRIP1 / Fold change vs veh, NRIP1 / RFU, PTTG1IP / Fold change vs veh, PTTG1IP / RFU, CAPN2 / Fold change vs veh, CAPN2 / RFU, MED14 / Fold change vs veh, MED14 / RFU, SNORA58 / Fold change vs veh, SNORA58 / RFU, C1orf63 / Fold change vs veh, C1orf63 / RFU, LRRFIP1 / Fold change vs veh, LRRFIP1 / RFU, NDUFAF7 / Fold change vs veh, NDUFAF7 / RFU, SLC12A2 / Fold change vs veh, SLC12A2 / RFU, IBTK / Fold change vs veh, IBTK / RFU, ESF1 / Fold change vs veh, ESF1 / Fold change vs veh, TMEM50B / RFU, TAOK1 / Fold change vs veh, TAOK1 / RFU, ACBD3 / Fold change vs veh, ACBD3 / RFU, TMA16 / Fold change vs veh, TMA16 / RFU, RWDD3 / Fold change vs veh, RWDD3 / RFU, BCAT1 / Fold change vs veh, BCAT1 / RFU, EDEM3 / Fold change vs veh, EDEM3 / RFU, TMEM33 / Fold change vs veh, TMEM33 / RFU, WDR75 / Fold change vs veh, WDR75 / RFU, AHCTF1 / Fold change vs veh, AHCTF1 / RFU, TFRC / Fold change vs veh, TFRC / RFU, ZDHHC17 / Fold change vs veh, ZDHHC17 / RFU, NOM1 / Fold change vs veh, NOM1 / RFU, ARL8B / Fold change vs veh, ARL8B / RFU, ZBTB11 / Fold change vs veh, ZBTB11 / RFU, TAMM41 / Fold change vs veh, TAMM41 / RFU, KIAA1704 /// LOC100996395 / Fold change vs veh, KIAA1704 /// LOC100996395 / RFU, ING1 / Fold change vs veh, ING1 / RFU, TRMT61B / Fold change vs veh, TRMT61B / RFU, FUBP3 / Fold change vs veh, FUBP3 / RFU, TP53 / Fold change vs veh, TP53 / RFU, TNKS2 / Fold change vs veh, TNKS2 / RFU, ZFP14 / Fold change vs veh, ZFP14 / RFU, ACTR2 / Fold change vs veh, ACTR2 / RFU, PPP3R1 / Fold change vs veh, PPP3R1 / RFU, PIK3R1 / Fold change vs veh, PIK3R1 / RFU, HNRNPA1 / Fold change vs veh, HNRNPA1 / RFU, RNF170 / Fold change vs veh, RNF170 / RFU, ZNF28 / Fold change vs veh, ZNF28 / RFU, RNGTT / Fold change vs veh, RNGTT / RFU, OGT / Fold change vs veh, OGT / RFU, BRD1 / Fold change vs veh, BRD1 / RFU, MARS / Fold change vs veh, MARS / RFU, ZNF655 / Fold change vs veh, ZNF655 / RFU, FAHD1 / Fold change vs veh, FAHD1 / RFU, BDP1 / Fold change vs veh, BDP1 / RFU, LRRCC1 / Fold change vs veh, LRRCC1 / RFU, ARID1A / Fold change vs veh, ARID1A / RFU, ZNF146 / Fold change vs veh, ZNF146 / RFU, ZNF330 / Fold change vs veh, ZNF330 / RFU, GPN3 / Fold change vs veh, GPN3 / RFU, C9orf123 / Fold change vs veh, C9orf123 / RFU, N4BP2L2 / Fold change vs veh, N4BP2L2 / RFU, ARFIP1 / Fold change vs veh, ARFIP1 / RFU, FAM179B / Fold change vs veh, FAM179B / RFU, BCL10 / Fold change vs veh, BCL10 / RFU, UHRF1BP1L / Fold change vs veh, UHRF1BP1L / RFU, BET1 / Fold change vs veh, BET1 / RFU, CNOT2 / Fold change vs veh, CNOT2 / RFU, ZNF268 / Fold change vs veh, ZNF268 / Fold change vs veh, ZNF507 / RFU, DGCR2 / Fold change vs veh, DGCR2 / RFU, WDSUB1 / Fold change vs veh, WDSUB1 / Fold change vs veh, HSP90B1 /// MIR3652 / RFU, ADSS / Fold change vs veh, ADSS / RFU, GK / Fold change vs veh, GK / RFU, ZNF148 / Fold change vs veh, ZNF148 / RFU, TAF9 / Fold change vs veh, TAF9 / RFU, SLC1A5 / Fold change vs veh, SLC1A5 / RFU, SLMO2 / Fold change vs veh, SLMO2 / RFU, ABCC4 / Fold change vs veh, ABCC4 / RFU, LOC101060439 /// RAP1B / Fold change vs veh, LOC101060439 /// RAP1B / RFU, RFX7 / Fold change vs veh, RFX7 / RFU, GTPBP10 / Fold change vs veh, GTPBP10 / RFU, CNEP1R1 / Fold change vs veh, CNEP1R1 / RFU, BIVM-ERCC5 /// ERCC5 / Fold change vs veh, BIVM-ERCC5 /// ERCC5 / RFU, ILF3 / Fold change vs veh, ILF3 / RFU 11762660_at / Fold change /veh 11762660_at / RFU VCAN (11757783_s_at) / Fold change /veh VCAN (11757783_s_at) / RFU DDX43 (11728927_at) / Fold change /veh DDX43 (11728927_at) / RFU KRT8 (11758188_x_at) / Fold change /veh KRT8 (11758188_x_at) / RFU NKD1 (11759106_at) / Fold change /veh NKD1 (11759106_at) / RFU SRD5A1 (11742802_a_at) / Fold change /veh SRD5A1 (11742802_a_at) / RFU TPSAB1 /// TPSB2 (11721975_s_at) / Fold change /veh TPSAB1 /// TPSB2 (11721975_s_at) / RFU GSTM3 (11746129_a_at) / Fold change /veh GSTM3 (11746129_a_at) / RFU IL23R (11737362_x_at) / Fold change /veh IL23R (11737362_x_at) / RFU TMEM51 (11727254_a_at) / Fold change /veh TMEM51 (11727254_a_at) / RFU PIWIL2 (11732686_x_at) / Fold change /veh PIWIL2 (11732686_x_at) / RFU ORM1 (11744905_x_at) / Fold change /veh ORM1 (11744905_x_at) / RFU CCDC152 (11743942_at) / Fold change /veh CCDC152 (11743942_at) / RFU ECM1 (11717891_a_at) / Fold change /veh ECM1 (11717891_a_at) / RFU IL23R (11748794_a_at) / Fold change /veh IL23R (11748794_a_at) / RFU TNFAIP8L3 (11732012_x_at) / Fold change /veh TNFAIP8L3 (11732012_x_at) / RFU MBOAT4 (11741988_at) / Fold change /veh MBOAT4 (11741988_at) / RFU 11764193_at / Fold change /veh 11764193_at / RFU TMEM53 (11763286_at) / Fold change /veh TMEM53 (11763286_at) / RFU MAGEB2 (11727129_at) / Fold change /veh MAGEB2 (11727129_at) / RFU TMEM200A (11744735_a_at) / Fold change /veh TMEM200A (11744735_a_at) / RFU CCDC152 (11751479_a_at) / Fold change /veh CCDC152 (11751479_a_at) / RFU FAM211A (11726209_a_at) / Fold change /veh FAM211A (11726209_a_at) / RFU RGS16 (11746705_a_at) / Fold change /veh RGS16 (11746705_a_at) / RFU VCAN (11755009_s_at) / Fold change /veh VCAN (11755009_s_at) / RFU RHOB (11743442_s_at) / Fold change /veh RHOB (11743442_s_at) / RFU RGS16 (11720943_a_at) / Fold change /veh RGS16 (11720943_a_at) / RFU RGS16 (11720944_at) / Fold change /veh RGS16 (11720944_at) / RFU, VPS4B / Fold change vs veh, VPS4B / RFU, CREB1 / Fold change vs veh, CREB1 / RFU, DNAJC13 / Fold change vs veh, DNAJC13 / RFU, GNAQ / Fold change vs veh, GNAQ / RFU, CDK5R1 / Fold change vs veh, CDK5R1 / RFU, ZRANB3 / Fold change vs veh, ZRANB3 / RFU, CUL4A / Fold change vs veh, CUL4A / RFU, CCNY / Fold change vs veh, CCNY / RFU, UFL1 / Fold change vs veh, UFL1 / RFU, COG3 / Fold change vs veh, COG3 / RFU, DIAPH2 / Fold change vs veh, DIAPH2 / RFU, SKA2 / Fold change vs veh, SKA2 / RFU, AFF3 / Fold change vs veh, AFF3 / RFU, LMF1 / Fold change vs veh, LMF1 / RFU, IPO11 / Fold change vs veh, IPO11 / RFU, DFFB / Fold change vs veh, DFFB / RFU, FOXP1 / Fold change vs veh, FOXP1 / RFU, CARD8 / Fold change vs veh, CARD8 / RFU, STRN3 / Fold change vs veh, STRN3 / RFU, ADK / Fold change vs veh, ADK / RFU, RASSF2 / Fold change vs veh, RASSF2 / RFU, WIPF1 / Fold change vs veh, WIPF1 / RFU, LARP1B / Fold change vs veh, LARP1B / RFU, RASA1 / Fold change vs veh, RASA1 / RFU, RB1 / Fold change vs veh, RB1 / RFU, PPFIA1 / Fold change vs veh, PPFIA1 / RFU, MAT2A / Fold change vs veh, MAT2A / RFU, CCT5 / Fold change vs veh, CCT5 / RFU, WDR92 / Fold change vs veh, WDR92 / RFU, CUX1 / Fold change vs veh, CUX1 / RFU, TTC7A / Fold change vs veh, TTC7A / RFU, TMEM135 / Fold change vs veh, TMEM135 / RFU, DEPTOR / Fold change vs veh, DEPTOR / RFU, CPM / Fold change vs veh, CPM / RFU, DNAJB6 / Fold change vs veh, DNAJB6 / RFU, CACNA2D3 / Fold change vs veh, CACNA2D3 / RFU, DTX4 / Fold change vs veh, DTX4 / RFU, TFCP2 / Fold change vs veh, TFCP2 / RFU, GMCL1 /// GMCL1P1 / Fold change vs veh, GMCL1 /// GMCL1P1 / RFU, AEBP2 / Fold change vs veh, AEBP2 / RFU, SNHG1 /// SNORD22 /// SNORD25 /// SNORD26 /// SNORD27 /// SNORD28 /// SNORD29 /// SNORD31 / Fold change vs veh, SNHG1 /// SNORD22 /// SNORD25 /// SNORD26 /// SNORD27 /// SNORD28 /// SNORD29 /// SNORD31 / Fold change (Aza/veh), C12orf56 (ProbeSet 11735607_a_at) / Fold change (ACY-1035/veh), C12orf56 (ProbeSet 11735607_a_at) / Fold change (Aza/veh), FGFR1OP (ProbeSet 11751329_s_at) / Fold change (ACY-1035/veh), FGFR1OP (ProbeSet 11751329_s_at) / Fold change (Aza/veh), VPS36 (ProbeSet 11739960_a_at) / Fold change (ACY-1035/veh), VPS36 (ProbeSet 11739960_a_at) / RFU SYPL1 (11715823_x_at) / Fold change /veh SYPL1 (11715823_x_at) / RFU IGFBP7 (11715501_s_at) / Fold change /veh IGFBP7 (11715501_s_at) / RFU REEP3 (11722064_at) / Fold change /veh REEP3 (11722064_at) / RFU IGLL1 (11728026_x_at) / Fold change /veh IGLL1 (11728026_x_at): dose or concentration left out as unconfirmed
Conditions: ProbeSet 11724763_s_at; LIST D

How did the “Fold change vs veh, DEPTOR” value turn out when Nc1ccc(-c2cccs2)cc1NC(=O)c1ccc2c(c1)cc(C1CC1)n2CCN1CCOCC1 [ACY-1035] was run?
The value was 0.84.
